Marks after values point to notes of the source that are not given here.
Columns and labels:
[1] = system: M. incognita eggs; experiment: Microwell assay: eggs immersed in compounds, hatch and activity of hatched J2; type: in vivo, Meloidogyne incognita; settings: 0.1%; for % Active Day 2 / % Active Day 5 / % Active Day 7: J2 hatched from immersed eggs; for Hatch Day 2 / Hatch Day 5 / Hatch Day 7: hatched J2 per well, about 35 eggs per well
Description: All chemicals were used without further purification.
These are reported as 0.1% herein.
The nematodes were then incubated at 26° C. […] Two trials were conducted for each assay.
(§1) The assumptions of the model were checked.

[2] = system: M. incognita; experiment: Greenhouse trial: root galls on cucumber in treated soil; type: in vivo, Meloidogyne incognita; settings: for reduction of galls per gram of root compared with the Tween control: 0.1%, Trials 1 & 2
Description: Two weeks after transplant, the plants were harvested.
as §1
The number of carbons is indicated in parentheses.

[3] = system: cucumber (Cucumis sativus) plants; experiment: Greenhouse trial: cucumber plant vigor in treated soil; settings: for Root weight Trials 1 & 2: 27-28 ml per 300 grams soil; for Shoot fresh weight Trial 1 / Shoot height Trial 1: 27 ml per 300 grams soil; for Shoot fresh weight Trial 2 / Shoot height Trial 2: 28 ml per 300 grams soil
Description: Greenhouse trials: Selected compounds and combinations were tested for effects on plant growth and on numbers of galls produced by M. incognita infecting cucumber (Cucumis sativus) plants in pots. Cucumber “Sweet Slice” seeds were planted in ProMix in 6-pack cell trays. Treatments were mixed into loamy sand at 27 ml (Trial 1) and 28 ml (Trial 2) per 300 grams soil. Meloidogyne incognita eggs were mixed into soil for a final inoculum of 5,000 per pot. Each pot received 300 grams soil per treatment, with 4 replicates per treatment in each of two trials. Pots were covered with black plastic and periodically watered to keep the soil moist. Two weeks later, one 14-day old cucumber seedling was transplanted into each pot. Two weeks after transplant, the plants were harvested. Root and shoot measurements were recorded and root galls were counted.
Statistical analyses: The data were analyzed as either a general linear model using JMP or a generalized linear model for the best distribution to fit the residual using Proc Glimmix (Sas Institute). The assumptions of the model were checked. If not met, then appropriate statistical techniques were used so that data could met the assumptions of the models. In Sas, mean comparisons were done with Sidak adjusted p-values to hold the experiment-wise error at 0.05. As indicated in the footnote to Table 5, an analysis from greenhouse trials was conducted with JMP using a Wilcoxon test with each pair nonparametric multiple comparisons (P≤0.05).
Table 5 legend: a) treatments were added at a rate of 27 ml (Trial 1) and 28 ml (Trial 2) per 300 grams soil. Four replicate pots, each containing 300 grams soil, were used per treatment in each trial. Meloidogyne incognita was mixed into soil for a final inoculum of 5,000 eggs per pot. Two weeks after soil treatment, one 14-day old cucumber seedling was transplanted into each pot. […] Untransformed data are presented to show actual numbers on roots; e) compounds differ from each other in number of carbons of aliphatic ester moiety. The number of carbons is indicated in parentheses.

[4] = system: M. incognita juveniles; settings: MB isolated from Buddleja crispa; laboratory assays; cited from earlier work

Compound	% Active Day 2 [1]	% Active Day 5 [1]	% Active Day 7 [1]	Hatch Day 2 [1]	Hatch Day 5 [1]	Hatch Day 7 [1]	Galls per gram root Trials 1 & 2 ([2]; 0.05%, 5,000 eggs per pot)	Galls per gram root Trials 1 & 2 ([2]; 0.1%, 5,000 eggs per pot)	reduction of galls per gram of root compared with the Tween control [2] [%]	Root weight Trials 1 & 2 ([3]; 0.05%)	Shoot fresh weight Trial 1 ([3]; 0.05%)	Shoot height Trial 1 ([3]; 0.05%)	Shoot fresh weight Trial 2 ([3]; 0.05%)	Shoot height Trial 2 ([3]; 0.05%)	Root weight Trials 1 & 2 ([3]; 0.1%)	Shoot fresh weight Trial 1 ([3]; 0.1%)	Shoot height Trial 1 ([3]; 0.1%)	Shoot fresh weight Trial 2 ([3]; 0.1%)	Shoot height Trial 2 ([3]; 0.1%)	nematocidal activity [4]
CCOC(=O)c1ccccc1 [EB, Ethyl benzoate]	0 ^c %	0 ^e %	0 ^c %	2.4 ^cd	3.9 ^cde	4.3 ^de	22.6 ^bcd	34.2 ^abc	53	3.2 ^ab g	2.8 ^a g	7.1 ^ab cm	4.7 ^a g	7.5 ^a cm	3.1 ^ab g	3.0 ^a g	6.4 ^b cm	4.0 ^ab g	8.1 ^a cm	
COC(=O)c1cccc(C)c1 [M3MB, Methyl 3-methylbenzoate]	0 ^c %	0 ^e %	0 ^c %	1.9 ^cd	2.7 ^cde	2.9 ^de	11.2 ^bcdef	6.8 ^defg		3.3 ^a g	3.3 ^a g	6.8 ^ab cm	4.3 ^ab g	7.9 ^a cm		3.2 ^a g	6.9 ^ab cm	3.6 ^ab g	7.2 ^a cm	
COC(=O)c1ccccc1 [MB, Methyl benzoate]	0 ^c %	0 ^e %	0 ^c %	2.2 ^cd	3.8 ^cde	4.7 ^de	16.6 ^bcde	7.4 ^defg		3.0 ^ab g	3.2 ^a g	7.7 ^ab cm	3.9 ^ab g	8.0 ^a cm	2.9 ^ab g	3.0 ^a g	7.2 ^ab cm	4.0 ^ab g	8.3 ^a cm	demonstrated nematocidal activity
C=COC(=O)c1ccccc1 [VB, Vinyl benzoate]	0 ^c %	0 ^e %	0 ^c %	2.7 ^cd	2.9 ^cde	2.8 ^de	1.8 ^gh	0.1 ^h	~100	3.1 ^ab g	3.2 ^a g	6.7 ^ab cm	4.3 ^ab g	8.3 ^a cm		3.0 ^a g	7.2 ^ab cm	3.1 ^b g	6.8 ^a cm	

From patent US20220183287A1, “METHODS FOR KILLING PESTS” (The United States of America, as represented by the …, priority 2020, published 2022)
